{"source": "PubChem BioAssay AID1963851", "about": "(Molecular Pharmacology Branch, DTP, NCI, 2024)", "system": "188146-221-R-J1-PDC complex spheroid viability", "assay": "Anticancer human tumor 188146-221-R-J1-PDC patient-derived colon adenocarcinoma cell line growth inhibition [POLQ]", "conditions": "for IC50: curve of first compound; for viability, T/C: stronger effect = lower value", "outline": "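Complex spheroid viability model combining PDC tumour cells with endothelial (HUVEC) and MSC stromal cells. Novobiocin, ART-558 or RP6685 were tested singly and in combination with standard and investigational anticancer drugs. Each was titrated in half-log steps from near clinical Cmax, or from 10 microM where Cmax was unknown.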", "key": {"[1]": {"conditions": "second compound 0.0316 µM, first compound 0.00316 µM"}, "[2]": {"conditions": "second compound 0.0316 µM, first compound 0.01 µM"}, "[3]": {"conditions": "second compound 0.0316 µM, first compound 0.0316 µM"}, "[4]": {"conditions": "second compound 0.0316 µM, first compound 0.1 µM"}, "[5]": {"conditions": "second compound 0.1 µM, first compound 0.00316 µM"}, "[6]": {"conditions": "second compound 0.1 µM, first compound 0.01 µM"}, "[7]": {"conditions": "second compound 0.1 µM, first compound 0.0316 µM"}, "[8]": {"conditions": "second compound 0.1 µM, first compound 0.1 µM"}, "[9]": {"conditions": "second compound 0.316 µM, first compound 0.00316 µM"}, "[10]": {"conditions": "second compound 0.316 µM, first compound 0.01 µM"}, "[11]": {"conditions": "second compound 0.316 µM, first compound 0.0316 µM"}, "[12]": {"conditions": "second compound 0.316 µM, first compound 0.1 µM"}, "[13]": {"conditions": "second compound 1 µM, first compound 0.00316 µM"}, "[14]": {"conditions": "second compound 1 µM, first compound 0.01 µM"}, "[15]": {"conditions": "second compound 1 µM, first compound 0.0316 µM"}, "[16]": {"conditions": "second compound 1 µM, first compound 0.1 µM"}, "[17]": {"conditions": "second compound 3.16 µM, first compound 0.00316 µM"}, "[18]": {"conditions": "second compound 3.16 µM, first compound 0.01 µM"}, "[19]": {"conditions": "second compound 3.16 µM, first compound 0.0316 µM"}, "[20]": {"conditions": "second compound 3.16 µM, first compound 0.1 µM"}, "[21]": {"conditions": "second compound 10 µM, first compound 0.00316 µM"}, "[22]": {"conditions": "second compound 10 µM, first compound 0.01 µM"}, "[23]": {"conditions": "second compound 10 µM, first compound 0.0316 µM"}, "[24]": {"conditions": "second compound 10 µM, first compound 0.1 µM"}}}
{"compound": "CC[C@@]1(O)C(=O)OCc2c1cc1n(c2=O)Cc2cc3c(CN(C)C)c(O)ccc3nc2-1", "note": "+ Cc1cccc(N(C)C(=O)C2C(O)CCN2c2nc(C)cc(C(F)(F)F)c2C#N)c1;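 further: spheroids exposed to compounds for seven days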;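 on viability, T/C: 100% = DMSO vehicle control viability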", "values": [{"measurement": "IC50", "setting": "second compound 0.0316 µM", "result": "> 100", "unit": "nM"}, {"measurement": "IC50", "setting": "second compound 0.1 µM", "result": "> 100", "unit": "nM"}, {"measurement": "IC50", "setting": "second compound 0.316 µM", "result": "> 100", "unit": "nM"}, {"measurement": "IC50", "setting": "second compound 1 µM", "result": "> 100", "unit": "nM"}, {"measurement": "IC50", "setting": "second compound 3.16 µM", "result": "> 100", "unit": "nM"}, {"measurement": "IC50", "setting": "second compound 10 µM", "result": "> 100", "unit": "nM"}, {"measurement": "viability, T/C", "setting": "second compound 0.0316 µM, first compound 0.000316 µM", "result": 110, "unit": "%"}, {"measurement": "viability, T/C", "setting": "second compound 0.0316 µM, first compound 0.001 µM", "result": 95.1, "unit": "%"}, {"measurement": "viability, T/C", "setting": "[1]", "result": 106, "unit": "%"}, {"measurement": "viability, T/C", "setting": "[2]", "result": 89.6, "unit": "%"}, {"measurement": "viability, T/C", "setting": "[3]", "result": 98.1, "unit": "%"}, {"measurement": "viability, T/C", "setting": "[4]", "result": 68.7, "unit": "%"}, {"measurement": "viability, T/C", "setting": "second compound 0.1 µM, first compound 0.000316 µM", "result": 112, "unit": "%"}, {"measurement": "viability, T/C", "setting": "second compound 0.1 µM, first compound 0.001 µM", "result": 99.6, "unit": "%"}, {"measurement": "viability, T/C", "setting": "[5]", "result": 96, "unit": "%"}, {"measurement": "viability, T/C", "setting": "[6]", "result": 107, "unit": "%"}, {"measurement": "viability, T/C", "setting": "[7]", "result": 99.1, "unit": "%"}, {"measurement": "viability, T/C", "setting": "[8]", "result": 77.5, "unit": "%"}, {"measurement": "viability, T/C", "setting": "second compound 0.316 µM, first compound 0.000316 µM", "result": 109, "unit": "%"}, {"measurement": "viability, T/C", "setting": "second compound 0.316 µM, first compound 0.001 µM", "result": 91.2, "unit": "%"}, {"measurement": "viability, T/C", "setting": "[9]", "result": 92.4, "unit": "%"}, {"measurement": "viability, T/C", "setting": "[10]", "result": 87, "unit": "%"}, {"measurement": "viability, T/C", "setting": "[11]", "result": 96.5, "unit": "%"}, {"measurement": "viability, T/C", "setting": "[12]", "result": 71.3, "unit": "%"}, {"measurement": "viability, T/C", "setting": "second compound 1 µM, first compound 0.000316 µM", "result": 93.4, "unit": "%"}, {"measurement": "viability, T/C", "setting": "second compound 1 µM, first compound 0.001 µM", "result": 99, "unit": "%"}, {"measurement": "viability, T/C", "setting": "[13]", "result": 101, "unit": "%"}, {"measurement": "viability, T/C", "setting": "[14]", "result": 104, "unit": "%"}, {"measurement": "viability, T/C", "setting": "[15]", "result": 97.9, "unit": "%"}, {"measurement": "viability, T/C", "setting": "[16]", "result": 75.9, "unit": "%"}, {"measurement": "viability, T/C", "setting": "second compound 3.16 µM, first compound 0.000316 µM", "result": 97.2, "unit": "%"}, {"measurement": "viability, T/C", "setting": "second compound 3.16 µM, first compound 0.001 µM", "result": 100, "unit": "%"}, {"measurement": "viability, T/C", "setting": "[17]", "result": 94.6, "unit": "%"}, {"measurement": "viability, T/C", "setting": "[18]", "result": 91.8, "unit": "%"}, {"measurement": "viability, T/C", "setting": "[19]", "result": 92.2, "unit": "%"}, {"measurement": "viability, T/C", "setting": "[20]", "result": 81, "unit": "%"}, {"measurement": "viability, T/C", "setting": "second compound 10 µM, first compound 0.000316 µM", "result": 100, "unit": "%"}, {"measurement": "viability, T/C", "setting": "second compound 10 µM, first compound 0.001 µM", "result": 99.6, "unit": "%"}, {"measurement": "viability, T/C", "setting": "[21]", "result": 92.4, "unit": "%"}, {"measurement": "viability, T/C", "setting": "[22]", "result": 84.2, "unit": "%"}, {"measurement": "viability, T/C", "setting": "[23]", "result": 78, "unit": "%"}, {"measurement": "viability, T/C", "setting": "[24]", "result": 54.6, "unit": "%"}]}
{"compound": "CCc1c2c(nc3ccc(O)cc13)-c1cc3c(c(=O)n1C2)COC(=O)[C@]3(O)CC", "note": "+ Cc1cccc(N(C)C(=O)C2C(O)CCN2c2nc(C)cc(C(F)(F)F)c2C#N)c1", "values": [{"measurement": "IC50", "setting": "second compound 0.0316 µM", "result": 18.7, "unit": "nM"}, {"measurement": "IC50", "setting": "second compound 0.1 µM", "result": 24.7, "unit": "nM"}, {"measurement": "IC50", "setting": "second compound 0.316 µM", "result": 24.3, "unit": "nM"}, {"measurement": "IC50", "setting": "second compound 1 µM", "result": 23.8, "unit": "nM"}, {"measurement": "IC50", "setting": "second compound 3.16 µM", "result": 22.1, "unit": "nM"}, {"measurement": "IC50", "setting": "second compound 10 µM", "result": 16.8, "unit": "nM"}, {"measurement": "viability, T/C", "setting": "[1]", "result": 106, "unit": "%"}, {"measurement": "viability, T/C", "setting": "[2]", "result": 64.3, "unit": "%"}, {"measurement": "viability, T/C", "setting": "[3]", "result": 39.6, "unit": "%"}, {"measurement": "viability, T/C", "setting": "[4]", "result": 17.9, "unit": "%"}, {"measurement": "viability, T/C", "setting": "second compound 0.0316 µM, first compound 0.316 µM", "result": 11.2, "unit": "%"}, {"measurement": "viability, T/C", "setting": "second compound 0.0316 µM, first compound 1 µM", "result": 6.74, "unit": "%"}, {"measurement": "viability, T/C", "setting": "[5]", "result": 102, "unit": "%"}, {"measurement": "viability, T/C", "setting": "[6]", "result": 81.4, "unit": "%"}, {"measurement": "viability, T/C", "setting": "[7]", "result": 39.9, "unit": "%"}, {"measurement": "viability, T/C", "setting": "[8]", "result": 19.9, "unit": "%"}, {"measurement": "viability, T/C", "setting": "second compound 0.1 µM, first compound 0.316 µM", "result": 10.1, "unit": "%"}, {"measurement": "viability, T/C", "setting": "second compound 0.1 µM, first compound 1 µM", "result": 8.21, "unit": "%"}, {"measurement": "viability, T/C", "setting": "[9]", "result": 99.1, "unit": "%"}, {"measurement": "viability, T/C", "setting": "[10]", "result": 87.7, "unit": "%"}, {"measurement": "viability, T/C", "setting": "[11]", "result": 38.2, "unit": "%"}, {"measurement": "viability, T/C", "setting": "[12]", "result": 15.9, "unit": "%"}, {"measurement": "viability, T/C", "setting": "second compound 0.316 µM, first compound 0.316 µM", "result": 11.5, "unit": "%"}, {"measurement": "viability, T/C", "setting": "second compound 0.316 µM, first compound 1 µM", "result": 6.74, "unit": "%"}, {"measurement": "viability, T/C", "setting": "[13]", "result": 101, "unit": "%"}, {"measurement": "viability, T/C", "setting": "[14]", "result": 78.2, "unit": "%"}, {"measurement": "viability, T/C", "setting": "[15]", "result": 40.7, "unit": "%"}, {"measurement": "viability, T/C", "setting": "[16]", "result": 17.3, "unit": "%"}, {"measurement": "viability, T/C", "setting": "second compound 1 µM, first compound 0.316 µM", "result": 9.53, "unit": "%"}, {"measurement": "viability, T/C", "setting": "second compound 1 µM, first compound 1 µM", "result": 8.73, "unit": "%"}, {"measurement": "viability, T/C", "setting": "[17]", "result": 86.1, "unit": "%"}, {"measurement": "viability, T/C", "setting": "[18]", "result": 73.7, "unit": "%"}, {"measurement": "viability, T/C", "setting": "[19]", "result": 39.1, "unit": "%"}, {"measurement": "viability, T/C", "setting": "[20]", "result": 16.7, "unit": "%"}, {"measurement": "viability, T/C", "setting": "second compound 3.16 µM, first compound 0.316 µM", "result": 13.6, "unit": "%"}, {"measurement": "viability, T/C", "setting": "second compound 3.16 µM, first compound 1 µM", "result": 8.63, "unit": "%"}, {"measurement": "viability, T/C", "setting": "[21]", "result": 92.2, "unit": "%"}, {"measurement": "viability, T/C", "setting": "[22]", "result": 65.1, "unit": "%"}, {"measurement": "viability, T/C", "setting": "[23]", "result": 31.2, "unit": "%"}, {"measurement": "viability, T/C", "setting": "[24]", "result": 17, "unit": "%"}, {"measurement": "viability, T/C", "setting": "second compound 10 µM, first compound 0.316 µM", "result": 15.2, "unit": "%"}, {"measurement": "viability, T/C", "setting": "second compound 10 µM, first compound 1 µM", "result": 9.83, "unit": "%"}]}
